According to publication PMC3682544, “Structural Analysis of Collagen Type I Interactions with Human Fibronectin Reveals a Cooperative Binding Mode” (The Journal of Biological Chemistry, 2013):
Where two headings read alike, the source gives them in different places. Values belong to the molecule of their own block, whether it stands above or below them. Square brackets hold non-standard residues; d marks the D form. Ends that are not written are not given here. Peptide text beside a SMILES is read from it. * marks the point of attachment. 5FAM = O=C1OC2(c3ccc(O)cc3Oc3cc(O)ccc32)c2ccc(C(=O)*)cc21; Hyp = O=C(O)[C@@H]1C[C@@H](O)CN1

Key:
[1] = target: T1, GBD (gelatin-binding domain, ^6FnI^1–2FnII^7–9FnI, residues 305–608) of human FN (Homo sapiens, UniProt P02751, H307D/N528Q/R534K); experiment: Fluorescence polarization titrations of 5-carboxyfluorescein-labelled collagen peptides with GBD; conditions: FA: fluorescence polarization, 75 nM N-terminal 5-carboxyfluorescein peptide, increasing protein, PBS, 25 °C, single binding model
T1 construct: FN fragments corresponding to residues 305–608 (GBD); made in house
T1 sequence (P02751 305-608 H307D/N528Q/R534K): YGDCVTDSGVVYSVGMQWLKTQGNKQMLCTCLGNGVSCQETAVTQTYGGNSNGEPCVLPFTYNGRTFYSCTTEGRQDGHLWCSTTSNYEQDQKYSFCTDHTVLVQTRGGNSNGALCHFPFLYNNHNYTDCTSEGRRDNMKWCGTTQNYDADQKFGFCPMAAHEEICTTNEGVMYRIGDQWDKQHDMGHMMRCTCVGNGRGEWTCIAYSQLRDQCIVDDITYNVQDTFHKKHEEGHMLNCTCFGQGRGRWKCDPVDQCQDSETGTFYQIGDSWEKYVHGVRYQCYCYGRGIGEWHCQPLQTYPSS
From the text: (§1) FN fragments corresponding to residues 305–608 (GBD), 305–515 (^6FnI^1–2FnII^7FnI), and 516–608 (^8–9FnI) and bearing single amino acid substitutions to improve solubility and protein yields (H307D, N528Q, and R534K) were produced as described previously ([7], [26], [32]). Synthetic collagen peptides were purchased from GL Biochem (Shanghai, China); their sequences are provided in Table 1, and unless fluorescently tagged, they included a C-terminal tyrosine residue for UV determination of peptide concentration. Fluorescent peptides had 5-carboxyfluorescein attached to the N-terminal amine group.
Fluorescence polarization measurements were performed at 25 °C in PBS using SpectraMax M5 (Molecular Devices) and PHERAstar FS (BMG Labtech) fluorometers. […] Differences in fluorescence polarization were fit using a single binding model in the program Origin (OriginLab) ([33]).

[2] = target: T2, ^8–9FnI (FN residues 516–608) (Homo sapiens, UniProt P02751, N528Q/R534K); experiment: ^1H-^15N heteronuclear single quantum correlation NMR titrations with ^8–9FnI; type: binding; conditions: NMR ^1H-^15N HSQC titration, PBS pH 7.2, 25 °C; for Kd: single binding event fit
T2 construct: and 516–608 (^8–9FnI); made in house
From the text: as §1
(§2) NMR spectrometers used superconducting magnets (Oxford Instruments) at 950- and 500-MHz proton resonance frequencies (home-built or Bruker AVANCE II consoles and room temperature or cryogenic probe heads, respectively). Spectra were recorded in PBS (20 mM Na2HPO4 (pH 7.2) and 150 mM NaCl) with 1% 4,4-dimethyl-4-silapentane-1-sulfonic acid as a calibration standard. Experiment temperatures were optimized to avoid resonance broadening due to intermediate exchange phenomena and corresponded to 25 °C (^8–9FnI) or 37 °C (^6FnI^1–2FnII^7FnI). Sequential chemical shift assignments were performed earlier ([7], [26]). Analysis of spectral perturbations upon protein interactions and determination of equilibrium parameters were performed as described ([33]).

[3] = target: T3, ^6FnI^1–2FnII^7FnI (FN residues 305–515) (Homo sapiens, UniProt P02751, H307D); experiment: ^1H-^15N heteronuclear single quantum correlation NMR titrations with ^6FnI^1–2FnII^7FnI; type: binding; conditions: NMR ^1H-^15N HSQC titration, chemical shift analysis, PBS pH 7.2, 37 °C
T3 construct: 305–515 (^6FnI^1–2FnII^7FnI); made in house
T3 sequence (P02751 305-515 H307D): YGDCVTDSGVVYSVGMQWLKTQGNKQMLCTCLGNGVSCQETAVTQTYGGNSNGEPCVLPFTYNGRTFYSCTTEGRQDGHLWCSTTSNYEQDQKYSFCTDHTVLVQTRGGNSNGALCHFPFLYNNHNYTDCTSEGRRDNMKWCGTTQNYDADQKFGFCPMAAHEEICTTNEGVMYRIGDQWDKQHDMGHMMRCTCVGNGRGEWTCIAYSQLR
From the text: as §1, §2

[4] = target: T2, ^8–9FnI (FN residues 516–608); conditions: NMR titration; cited from earlier work
From the text: TABLE 1 KD values for collagen I peptide binding to FN fragments α1 and α2 chain numbering is taken to begin at the estimated start of the helical region. “O” in peptide sequences denotes 4-hydroxyproline. NMR, ^1H-^15N heteronuclear single quantum correlation NMR titrations; FA, fluorescence polarization titrations using N-terminal 5-carboxyfluorescein labeling. In titrations where no binding was | column: KD / ^8–9FnI || To firmly establish the elusive molecular interplay between the GBD and the most common collagen (type I), we first need to understand the exact nature of the binding site. […] At a distance of ∼1/10 (D-period 1, peptides AN and CN) or 3/4 (D-period 4, peptides BN and DN) from the N terminus of the triple hel ... || FIGURE 3. GBD-binding sites on collagen type I. A, schematic representation of the collagen type I α1 and α2 chains and the two FN-binding sites at 1/10 and 3/4 sequence distance from the collagen N terminus. ^8–9FnI-binding sites (peptides AN, BN, CN, and DN) are shown in blue, with the sequences immediately C-terminal thereof (peptides AC, BC, CC, and DC) shown in red. Dissociation constants are indicated. Highlighted in green is the only site where the two GBD subfragments, ^6FnI^1–2FnII^7FnI and ^8–9FnI, bind collagen type I cooperatively. B, amino acid sequences of peptides A–D. Conserved ...
Target sequence in this assay (P02751 516-608 N528Q/R534K): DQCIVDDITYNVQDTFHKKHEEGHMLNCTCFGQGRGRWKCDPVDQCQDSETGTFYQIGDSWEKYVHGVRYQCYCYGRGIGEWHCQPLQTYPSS

[5] = target: fibronectin modules 8-9FnI, residues 516-608 (human) (UniProt P02751); experiment: NMR titration; 1H-15N HSQC of 8-9FnI, collagen peptide titrated in, PBS (20 mM Na2HPO4 pH 7.2, 150 mM NaCl), 25 °C; single binding event
[6] = target: collagen type I alpha2 peptide C, Q72-G118, 5-carboxyfluorescein labelled; experiment: fluorescence polarisation; 75 nM 5-carboxyfluorescein-labelled peptide, increasing concentrations of protein, 96-well plates, 25 °C, PBS; single binding model
[7] = target: collagen type I alpha1 peptide A, G70-G118, 5-carboxyfluorescein labelled; experiment: as above
[8] = target: collagen type I alpha2 peptide D, G772-G820, 5-carboxyfluorescein labelled; experiment: as above
[9] = target: collagen type I alpha1 peptide B, G772-G820, 5-carboxyfluorescein labelled; experiment: as above

Molecule: 5FAM-GPQGARGL[Hyp]GTAGL[Hyp]GMKGHRGFSGLDGAKGDAGPAGPKGE[Hyp]GS[Hyp]GENG [A]
Kd [1]: 97.9 ± 8.2 µM

Molecule: 5FAM-QGARGF[Hyp]GT[Hyp]GL[Hyp]GFKGIRGHNGLDGLKGQ[Hyp]GA[Hyp]GVKGE[Hyp]GA[Hyp]GENG [C]
Kd [1]: 25.6 ± 2.6 µM

Molecule: BN: Synthetic collagen type I α1 peptide 775–799 with C-terminal tyrosine (GLPGQRGVVGLPGQRGERGFPGLPGY; 4-hydroxyproline at peptide positions 3, 12, 21 and 24 (printed O); its leading GLO differs from the native GIA in peptide B. The text and PDB 3)
Kd [4]: 5 ± 1 µM

Molecule: DN: Synthetic collagen type I α2 peptide 778–799 with C-terminal tyrosine (GAPGILGLPGSRGERGLPGVAGY; 4-hydroxyproline at peptide positions 3, 9 and 18 (printed O); C-terminal Tyr added for UV quantification)
Kd [4]: 8 ± 2 µM

Molecule: gelatin-binding domain (GBD) of human fibronectin, 6FnI1-2FnII7-9FnI, residues 305-608 (from UniProt P02751 305-608) (domain or fragment)
Kd [6]: 26 µM
Kd [7]: 98 µM
Kd [8]: 6 µM
Kd [9]: 15 µM

Results, then the molecule that gave them:

Kd [1]: 15.2 ± 2 µM
Molecule: 5FAM-GPQGIAGQRGVVGL[Hyp]GQRGERGF[Hyp]GL[Hyp]GPSGE[Hyp]GKQGPSGASGERGP[Hyp]G [B]

Kd [1]: 5.8 ± 1 µM
Molecule: 5FAM-GPQGLLGA[Hyp]GILGL[Hyp]GSRGERGL[Hyp]GVAGAVGEPGPLGIAGP[Hyp]GARGP[Hyp]G [D]

Kd [2]: 143 ± 17.3 µM
Molecule: CSCC[C@H](NC(=O)CNC(=O)[C@@H]1C[C@@H](O)CN1C(=O)[C@H](CC(C)C)NC(=O)CNC(=O)[C@H](C)NC(=O)[C@@H](NC(=O)CNC(=O)[C@@H]1C[C@@H](O)CN1C(=O)[C@H](CC(C)C)NC(=O)CN)[C@@H](C)O)C(=O)N[C@@H](CCCCN)C(=O)NCC(=O)N[C@@H](Cc1c[nH]cn1)C(=O)N[C@@H](CCCNC(=N)N)C(=O)NCC(=O)N[C@@H](Cc1ccccc1)C(=O)N[C@@H](CO)C(=O)NCC(=O)N[C@@H](CC(C)C)C(=O)N[C@@H](CC(=O)O)C(=O)NCC(=O)N[C@@H](Cc1ccc(O)cc1)C(=O)O [AN] (H-GL[Hyp]GTAGL[Hyp]GMKGHRGFSGLDGY-OH)

KD ^8–9FnI (NMR interaction regime, in words) [2]: fast interaction regime
Kd [2]: 96.5 ± 11.4 µM
Molecule: CC(C)C[C@H](NC(=O)CNC(=O)[C@H](CO)NC(=O)[C@@H](NC(=O)CNC(=O)[C@H](CCCNC(=N)N)NC(=O)[C@H](CCC(N)=O)NC(=O)CN)C(C)C)C(=O)N1C[C@H](O)C[C@H]1C(=O)NCC(=O)N[C@@H](CCC(N)=O)C(=O)N[C@@H](CCCNC(=N)N)C(=O)NCC(=O)N[C@@H](CCC(=O)O)C(=O)N[C@@H](CCCNC(=N)N)C(=O)NCC(=O)N[C@@H](Cc1ccccc1)C(=O)N1C[C@H](O)C[C@H]1C(=O)NCC(=O)N[C@@H](CC(C)C)C(=O)N1C[C@H](O)C[C@H]1C(=O)NCC(=O)N[C@@H](Cc1ccc(O)cc1)C(=O)O [BN-S783V] (H-GQRGVSGL[Hyp]GQRGERGF[Hyp]GL[Hyp]GY-OH)

Kd [3]: 248 ± 11.6 µM
Molecule: CC(C)C[C@H](NC(=O)CNC(=O)[C@H](CC(=O)O)NC(=O)[C@H](CC(C)C)NC(=O)CNC(=O)[C@H](CC(N)=O)NC(=O)[C@H](Cc1c[nH]cn1)NC(=O)CN)C(=O)N[C@@H](CCCCN)C(=O)NCC(=O)N[C@@H](CCC(N)=O)C(=O)N1C[C@H](O)C[C@H]1C(=O)NCC(=O)N[C@@H](C)C(=O)N1C[C@H](O)C[C@H]1C(=O)NCC(=O)N[C@H](C(=O)N[C@@H](CCCCN)C(=O)NCC(=O)N[C@@H](CCC(=O)O)C(=O)N1C[C@H](O)C[C@H]1C(=O)NCC(=O)N[C@@H](C)C(=O)N1C[C@H](O)C[C@H]1C(=O)NCC(=O)N[C@@H](CCC(=O)O)C(=O)N[C@@H](CC(N)=O)C(=O)NCC(=O)N[C@@H](Cc1ccc(O)cc1)C(=O)O)C(C)C [CC] (H-GHNGLDGLKGQ[Hyp]GA[Hyp]GVKGE[Hyp]GA[Hyp]GENGY-OH)

Kd [2]: 2000 ± 200 µM
Molecule: CC[C@H](C)[C@H](NC(=O)CNC(=O)[C@H](CCCCN)NC(=O)[C@H](Cc1ccccc1)NC(=O)CNC(=O)[C@@H]1C[C@@H](O)CN1C(=O)[C@H](CC(C)C)NC(=O)CNC(=O)[C@@H]1C[C@@H](O)CN1C(=O)[C@@H](NC(=O)CNC(=O)[C@@H]1C[C@@H](O)CN1C(=O)[C@H](Cc1ccccc1)NC(=O)CN)[C@@H](C)O)C(=O)N[C@@H](CCCNC(=N)N)C(=O)NCC(=O)N[C@@H](Cc1c[nH]cn1)C(=O)N[C@@H](CC(N)=O)C(=O)NCC(=O)N[C@@H](CC(C)C)C(=O)N[C@@H](CC(=O)O)C(=O)NCC(=O)N[C@@H](Cc1ccc(O)cc1)C(=O)O [CN] (H-GF[Hyp]GT[Hyp]GL[Hyp]GFKGIRGHNGLDGY-OH)

Kd [5]: 97 µM
Molecule: collagen type I alpha1 peptide BN with Val783 changed to serine, G778-G799 with C-terminal tyrosine
